Patent US7556938B1, “Nucleic acids encoding potassium channel interactors” (Millennium Pharmaceuticals, Inc., priority 1998, dated 2009)

What was measured:
[1] = molecular target: T1, Kv4.2 (Rattus norvegicus, UniProt Q63881); assay: AA modulation of Kv4.2 current (Kv4.2 expressed alone) in CHO cells; type: cell-based; settings: Kv4.2 alone, 10 μM AA
T1 construct: expressed in transfected cells; host or cells: CHO cells, transient transfection with GFP co-transfected
T1 sequence (Q63881 1-630): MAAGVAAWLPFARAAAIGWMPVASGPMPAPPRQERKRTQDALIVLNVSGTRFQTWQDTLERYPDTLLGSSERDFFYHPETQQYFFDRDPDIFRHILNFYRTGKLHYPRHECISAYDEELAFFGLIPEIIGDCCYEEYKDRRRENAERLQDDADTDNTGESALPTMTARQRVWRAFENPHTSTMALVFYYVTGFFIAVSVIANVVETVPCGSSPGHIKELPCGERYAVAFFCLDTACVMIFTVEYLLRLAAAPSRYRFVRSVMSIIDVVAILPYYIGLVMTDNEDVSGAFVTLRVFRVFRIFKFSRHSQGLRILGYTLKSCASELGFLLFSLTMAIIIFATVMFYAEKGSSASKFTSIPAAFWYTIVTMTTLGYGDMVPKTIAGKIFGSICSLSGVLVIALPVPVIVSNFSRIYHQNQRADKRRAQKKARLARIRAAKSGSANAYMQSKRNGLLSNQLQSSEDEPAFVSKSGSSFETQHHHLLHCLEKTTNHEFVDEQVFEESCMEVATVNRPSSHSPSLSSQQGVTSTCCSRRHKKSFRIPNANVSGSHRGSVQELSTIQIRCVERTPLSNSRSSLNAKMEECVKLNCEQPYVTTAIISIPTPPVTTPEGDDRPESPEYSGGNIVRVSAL
Description: HEK 293 and CHO cells were used for recordings 1-3 days after a transient transfection. Whole-cell currents were recorded from cells expressing GFP, identified by their green fluorescence. […] After Gigaseal and ruptured whole-cell configuration access, resistance was less than 10 MOhms. Whole-cell bath solutions were made from a 10× Hank's balanced salt solution (GibcoBRL) with the following final concentration (in mM): 138 NaCl, 5.4 KCl, 1.3 MgCl2, 1.3 CaCl2, 5.5 D-Glukos and 10 HEPES, pH 7.4. The intracellular electrode solution consisted of (in mM) 140 KCl, 10 HEPES, 10 EGTA, 0.5 MgCl2, pH 7.3. All chemicals were from Sigma (St. Louis, Mo.) or Fisher Scientific (Houston, Tex.). Membrane currents were recorded using a EPC9 patch-clamp amplifier (HEKA, Germany). Data were analyzed using Matlab (Natick, Ma), and leak subtracted if necessary. All experiments were done at room temperature. […]

[2] = molecular target: T2, interaction between N-terminal domain of Kv4.3 and KChIP1 (Rattus norvegicus, UniProt Q62897+Q8R426); assay: Biosensor (Biacore) in vitro binding of KChIP1 to GST-Kv4.3N with and without arachidonic acid; settings: 10 μM arachidonic acid, 1 μM KChIP1
T2 construct: The intracellular N-terminal domain of Kv4.3 was expressed as a GST fusion protein (GST-Kv4.3N); GST (N, cleaved yes); made in house; host or cells: E. coli
T2 sequence (Q62897 1-182 limits assumed): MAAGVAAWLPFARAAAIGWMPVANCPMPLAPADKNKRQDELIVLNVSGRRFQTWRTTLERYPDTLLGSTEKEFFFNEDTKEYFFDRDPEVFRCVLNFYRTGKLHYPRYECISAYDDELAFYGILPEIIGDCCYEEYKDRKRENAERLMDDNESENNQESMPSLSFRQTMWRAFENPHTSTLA
T2 sequence (Q8R426 1-216 isoform Q8R426-2): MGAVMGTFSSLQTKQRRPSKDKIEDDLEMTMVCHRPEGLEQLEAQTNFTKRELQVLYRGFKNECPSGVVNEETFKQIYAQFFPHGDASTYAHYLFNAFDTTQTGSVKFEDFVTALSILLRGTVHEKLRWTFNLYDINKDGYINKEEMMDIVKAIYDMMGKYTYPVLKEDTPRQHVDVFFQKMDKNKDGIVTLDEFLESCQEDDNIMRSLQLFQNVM
From the text: The N-terminal domain of rat Kv4.3 was expressed as a GST fusion (GST-Kv4.3N) and purified from E. coli essentially following protocols provided by Amersham Pharmacia Biotech (Piscataway, N.J.). Recombinant rat KChIP1 protein was first expressed and purified as a GST-fusion, then the GST moiety was cleaved using PreScission protease (Amersham Pharmacia Biotech) to give rise to the free KChIP1 protein. Both GST-Kv4.3N and KChIP proteins were >95% pure as estimated by coomassie stain of denaturing gels. In vitro binding assays were performed using a Biacore 3000 from Biacore AB in Uppsala, Sweden. The experiments were performed in phosphate buffered saline (PBS), pH 7.4, with 1 mM CaCl2 and 0.05% polysorbate P-20. Anti-GST antibody (Biacore AB) was coupled to 3 flowcells of a CM-5 chip (Biacore AB) at a level of 2000 resonance units (RUs) using amine coupling. […]
To test the hypothesis that arachidonic acid acts by interfering with the binding between Kv4 and KChIPs, the surface plasmon resonance measurement (Biosensor) was first used to monitor the association and dissociation phases of Kv4-KChIP interaction in the presence and absence of arachidonic acid. The intracellular N-terminal domain of Kv4.3 was expressed as a GST fusion protein (GST-Kv4.3N) and immobilized to the surface of a Biosensor chip. […]

[3] = tested on: Kv4 α subunits; settings: in oocytes; Villarroel and Schwarz (1996); read-out: IC50 of arachidonic acid on Kv4 α subunits; cited from earlier work

## CCCCC/C=C\C/C=C\C/C=C\C/C=C\CCCC(=O)O [arachidonic acid]
[1]
  Peak amplitude (pA ± SEM): 336 ± 82 pA
[1]; listed as AA
  Inactivation time constant (ms ± SEM): 32 ± 2 ms
[2]
  effect on association and dissociation phase of KChIP1 binding to GST-Kv4.3N: a qualitative difference aws not observed
[3]
  IC50: ~8 µM
